How the values were obtained:
PBMC [1] = assay: Antiinflammatory activity in human PBMC assessed as inhibition of MIF-induced IL-6 production at 30 uM after 21 hrs by ELISA; assay type: functional
[2] = molecular target: T1, Macrophage migration inhibitory factor (Homo sapiens) (UniProt P14174); assay: Inhibition of human purified MIF tautomerase activity at 10 uM after 30 mins
T1 sequence (whole entry): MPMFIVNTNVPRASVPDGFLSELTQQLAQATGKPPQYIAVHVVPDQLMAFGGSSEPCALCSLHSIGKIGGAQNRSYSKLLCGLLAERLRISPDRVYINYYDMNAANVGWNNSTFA

[3] = molecular target: T1, Macrophage migration inhibitory factor (Homo sapiens); assay: Inhibition of human purified MIF tautomerase activity at 100 uM after 30 mins
[4] = Cytotoxicity against human PBMC assessed as cell viability measured during MIF secretion assay at 100 uM after 21 hrs by MTS assay; assay type: cell-based; settings: PBMC (peripheral blood mononuclear cells)
[5] = Cytotoxicity against human PBMC assessed as cell viability measured during cytokines production assay at 100 uM after 21 hrs by MTS assay; assay type: cell-based; settings: PBMC (peripheral blood mononuclear cells)
PBMC [6] = assay: Antiinflammatory activity in human PBMC assessed as inhibition of MIF-induced IL-6 production at 100 uM after 21 hrs by ELISA; assay type: functional
PBMC [7] = assay: Antiinflammatory activity in human PBMC assessed as inhibition of MIF-induced IL1-beta production at 100 uM after 21 hrs by ELISA; assay type: functional
PBMC [8] = assay: Antiinflammatory activity in human PBMC assessed as inhibition of MIF-induced TNFalpha production at 100 uM after 21 hrs by ELISA; assay type: functional
[9] = molecular target: T1, Macrophage migration inhibitory factor (Homo sapiens); assay: Inhibition of MIF in human PBMC assessed as MIF secretion at 10 uM after 5 hrs by ELISA
[10] = molecular target: T1, Macrophage migration inhibitory factor (Homo sapiens); assay: Inhibition of MIF in human PBMC assessed as MIF secretion at 100 uM after 5 hrs by ELISA

inhibition [2] | inhibition [3] | inhibition [9] | inhibition [10] | Compound | inhibition at 30 µM (PBMC [1]) | cytotoxicity at 21 h, 100 µM [4] | cytotoxicity at 21 h, 100 µM [5] | inhibition at 100 µM (PBMC [6]) | inhibition at 100 µM (PBMC [7]) | inhibition at 100 µM (PBMC [8])
15% | 100% | 0% | 5% | CC(C)(C)C(=O)OC1CC(c2cn(-c3cccc(C(F)(F)F)c3)c3ccccc23)=NO1 (stereo not given) | 10% | 0% | 15% | 12% | 15% | 0%
3% | 23% | 39% | 58% | OCCC1CC(c2ccoc2)=NO1 (stereo not given) | 18% | 0% | 10% | 7% | 0% | 11%
17% | 59% | 37% | 68% | c1ccc(C2CC(c3ccoc3)=NO2)cc1 (stereo not given) | 5% | 0% | 16% | 14% | 31% | 50%
18% | 29% | 0% | 21% | CC1(C(=O)O)CC(c2ccoc2)=NO1 (stereo not given) | 14% | 2% | 10% | 7% | 15% | 32%

— ChEMBL document CHEMBL1681642, “Synthesis and biological activity of novel MIF antagonists” (Bioorg Med Chem Lett, 2011)
